According to US20140288079A1, “SGC STIMULATORS OF SGC ACTIVATORS IN COMBINATION WITH PDE5 INHBITORS FOR THE TREATMENT OF ERECTILE DYSFUNCTION” (BAYER PHARMA AKTIENGESELLSCHAFT, priority 2009, published 2014):

Tests used:
[1] = previous studies; single administration of 2.0 mg BAY 60-4552; cited from earlier work
[2] = system: conscious male chinchilla rabbits; test: conscious rabbit ED model, high SNP dose (0.2 mg/kg i.v.), general ED population; type: in vivo; conditions: summary of Example 1; rabbits and rats; in the range of vardenafil
Description: (§1) The conscious rabbit ED model previously described (Bischoff and Schneider 2001) was used for the investigation of Erectile function. In brief: conscious male chinchilla rabbits (3-4 kg) were orally treated with the test compounds or with vehicle via gavage, followed by i.v. injection of the NO-donnor sodium nitro-prusside (SNP) in the ear vein, 90 minutes after oral applications. The SNP injections were done in a high dose setting (0.2 mg/kg SNP i.v) and a low dose setting (0.02 mg/kg SNP i.v.) corresponding to the general ED-population and the PDE5 non-responder ED-population, respectively. Penile length was quantified in 5 minutes intervals after injection of the SNP.
The conscious rabbit ED model previously described (Bischoff and Schneider 2001) was used for the investigation of Erectile function as described in Example 1. The SNP injections were done in a high dose setting (0.2 mg/kg SNP i.v) corresponding to the general ED-population in which PDE5 inhibitors are fully active. Penile length was quantified in 5 minutes intervals after injection of the SNP.
The conscious rabbit ED model as described in Expample 1 and Example 6 was used for assessment of responderrates. […] Penile length was quantified in 5 minutes intervals after injection of the SNP. […]

[3] = phase I study #14441, pharmacokinetics of co-administration; type: in vivo, human; conditions: for half-life / Tmax: male, human, plasma, po; for Tmax: read-out: median tmax
Excerpt: The study was designed as a randomized, single-blind, placebo-controlled, group-comparison, dose-escalation study.

[4] = system: conscious male chinchilla rabbits; test: conscious rabbit ED model, low SNP dose (0.02 mg/kg i.v.), PDE5-resistant ED; type: in vivo
Description: as §1

[5] = system: conscious male chinchilla rabbits; test: haemodynamic effects by telemetry in conscious rabbits; type: in vivo, rabbit; conditions: stand alone
Excerpt: In brief, telemetric implants (C50 PXT-DSI®) were used. Signals were received with RMC1-DSI® receiver plates, compiled and analyzied with PONEMAH® physiology platform software.

[6] = system: involved metabolic enzymes; conditions: stated as fact; cited from earlier work
rabbits = conditions: intravenous and oral applications; cited from earlier work

With COC(=O)Nc1c(N)nc(-c2nn(Cc3ccccc3F)c3ncccc23)nc1N [BAY 60-4552, methyl-4,6-diamino-2-[1-(2-fluorobenzyl)-1H-pyrazolo[3,4-b]pyridin-3-yl]-5-pyrimidinylcarbamate] as the compound, how does the “effect on heart rate and blood pressure” value [1] read?
The value was “no clinically relevant effect on heart rate and blood pressure”.

And the “erections, stand alone treatment” value [2]?
The value was “significant erections”.

And the “dose proportionality of exposure” value ([3]; BAY 60-4552 1 mg to 2 mg in combination with vardenafil 2.5 mg to 20 mg)?
The value was “increased in proportion to the dose”.

And the “exposure following concomitant administration versus each compound alone” value [3]?
Its value is “consistent with historical data”.

What about the “time linearity of pharmacokinetics” value ([3]; in vivo) of the same compound?
Its value is “time linear”.

And the half-life [3]?
Its half-life is 13 to 14 h.

What about the Tmax [3] of the same compound?
The Tmax was 0.5 to 1 h.

What about the “penile erection (penile length)” value ([4]; low SNP 0.02 mg/kg i.v., 3 and 10 mg/kg p.o. stand alone) of the same compound?
Its value is “able to induce physiologically relevant erections”.

What about the “decrease in mean arterial blood pressure” value ([5]; 1 mg/kg p.o.) of the same compound?
Its value is −5 mmHg.

What about the heart rate increase ([5]; 1 mg/kg p.o.) of the same compound?
Its heart rate increase is “+24 bpm”.

And the “decrease in blood pressure” value ([5]; 3 mg/kg)?
Its value is −11 mmHg.

What about the heart rate increase ([5]; 3 mg/kg) of the same compound?
The heart rate increase was “+51 bpm”.

And the “decrease in blood pressure” value ([5]; 10 mg/kg)?
Its value is −22 mmHg.

And the heart rate increase ([5]; 10 mg/kg)?
Its heart rate increase is “+103 bpm”.

And the “inhibitor or inducer of the involved metabolic enzymes” value [6]?
Its value is “neither vardenafil nor BAY 60-4552 is an inhibitor or inducer”.

Which erections (rabbits) does the source give for COC(=O)N(C)c1c(N)nc(-c2nn(Cc3ccccc3F)c3ncccc23)nc1N [BAY 63-2521, methyl-4,6-diamino-2-[1-(2-fluorobenzyl)-1H-pyrazolo[3,4-b]pyridin-3-yl]-5-pyrimidinyl-(methyl)carbamate] here?
The erections was “induced stable erections”.

Which results are given for CCCc1nc(C)c2c(=O)[nH]c(-c3cc(S(=O)(=O)N4CCN(CC)CC4)ccc3OCC)nn12 [Vardenafil, 2-(2-Ethoxy-5-(4-ethylpiperazin-1-yl-1-sulfonyl)phenyl)-5-methyl-7-propyl-3H-imidazo (5,1-f) (1,2,4)triazin-4-one, reference compound]?
dose proportionality of exposure ([3]; 20 mg vardenafil level): slightly higher than proportional exposure; exposure following concomitant administration versus each compound alone [3]: consistent with historical data; half-life [3]: 3 to 5 h; Tmax [3]: 0.75 to 1 h; dose proportionality of AUC and Cmax ([3]; vardenafil 2.5 mg to 10 mg in combination with 1 mg or 2 mg BAY 60-4552): dose-proportional; decrease in mean arterial blood pressure ([5]; 1 mg/kg p.o.): −4 mmHg; heart rate increase ([5]; 1 mg/kg p.o.): +14 bpm

With CCCc1nn(C)c2c(=O)[nH]c(-c3cc(S(=O)(=O)N4CCN(C)CC4)ccc3OCC)nc12 [Sildenafil, 3-[2-ethoxy-5-(4-methylpiperazin-1-yl)sulfonyl-phenyl]-7-methyl-9-propy 1-2,4,7,8-tetrazabicyclo[4.3.0]nona-3,8,10-trien-5-one, reference compound] as the compound, how does the “penile erection (penile length)” value ([4]; rabbit, in vivo) read?
Its value is “not able to produce any physiologically relevant erection”.
